Test results as given in patent US9487551B2, “Small molecule compounds that control mammal-pathogenic nematodes” (California Institute of Technology, priority 2011, dated 2016).
Entries after “also recorded” stand apart in the source; their conditions may differ. Marks after values point to notes of the source that are not given here.

What was measured:
S. feltiae = assay: Ascaroside function (Table 12); assay type: in vivo, Steinernema feltiae; conditions: listed = has this function
Procedure: (§1) Various ascarosides and ascaroside blends were administered to various nematodes described below (Table 12). […] A very strong result of affecting nematode behavior is designated in the table as “strong.”

C. elegans males = assay: Attraction assay (long-range, point source); assay type: in vivo; conditions: 10 cm plate
Procedure: 10 cm standard chemotaxis plates were prepared (Bargmann et al., Cell 74:515-27 (1993), which is hereby incorporated by reference in its entirety) and stored at 4° C. until the day before use. Standard 1 cm-diameter copper pipes were sectioned into 1 cm-tall segments to use for the holding chambers. The females/hermaphrodites were isolated overnight, washed 3 times in M9 buffer, and then allowed to wander on a plate pre-conditioned with 50 uL of 1000× treptomycin for 2 hours to kill any bacteria that might produce a false positive attractant. The nematodes were then washed 3 times, and the supernatant from the last wash was placed in a copper chamber, as the control, 1 cm from the border of the 10 cm plate. The nematodes were suspended in M9 within the copper chamber, 1 cm from the border opposite the control chamber. After 6 hours, they were subsequently removed and replaced with 3 μL of 1M sodium azide. 100 C. elegans adult males were isolated overnight, washed several times in ddH2O, and placed at the center of the agar plate. After several hours, males paralyzed within 2 cm of each region were scored. The Chemotaxis Index (Bargmann et al., Cell 74:515-27 (1993), which is hereby incorporated by reference in its entirety) was then used to score male chemotaxis to either point source.

C. elegans [1] = conditions: cited from earlier work
[2] = system: Several of the tested nematode species; assay: Retention assay; assay type: in vivo; conditions: 1 nM, 1 μM and 1 mM tested
Procedure: OP50 E. coli was grown on a standard 5 cm agar plate (made with standard Nematode Growth Medium). The bacterial lawn was 16 mm in diameter and was grown overnight at 20° C. before being used in trials. Two 4 mm spots (0.6 μL) were placed on opposite sides of the bacterial lawn (using a transparent template to guide spot placement), and several minutes elapsed for the liquid to settle in before placing nematodes down on the assay. Recording began immediately upon worm placement. 0.6 μL of the control was placed on one side of the lawn, and 0.6 μL of the experimental cue was placed on the other side of the lawn, changing the location of the cue throughout trials between left/right and top/bottom to avoid bias.
Nematodes were isolated by gender at the L4 stage the day before being used in trials as developed adults. Worms were evenly divided and placed at two points equidistant from the foci of the scoring region. Trials were recorded for 20 minutes, and frames were collected for analysis at 1 frame per second. Results were averaged from at least three different trials. For every nematode species in this study, a different total number of worms (using water in both scoring regions) was tested to determine the minimum number of worms necessary for consistent unbiased results over a 20 minute trial. The total number of worms used in the multiple species assays depended on that species' optimal parameters. 10 worms were used for P. redivivus males and females, 20 worms were used for C. elegans males and O. dolichuridae males, and 14 worms were used for S. glaseri males. The Automated Software was used to compare worm occupancy in each scoring region over time, and the Chemotaxis Index (Bargmann et al., Cell 74:515-27 (1993), which is hereby incorporated by reference in its entirety) was adapted to score preference or avoidance to each ascaroside.
A video camera attached to the microscope produced a digital video stream, which was then analyzed. The ratio of the time the average worm spent in each region of interest was calculated for every trial. For ease of implementation, all worms in a single experiment were assumed to be roughly the same size. Thus worm pixels were counted instead of whole worms, allowing fractions of a worm in the region of interest to be taken into account. It also eliminated the need for a shape-based worm identification algorithm, and allowed each frame to be analyzed independently. A band-pass filter was applied to each frame to eliminate the effect of uneven lighting and also accentuate the worms against the background. The worm was then identified after thresholding the filtered image. Throughout each experiment, the locations and sizes of the regions of interest were known. Through the filtering described above, it is known which pixels are occupied by worms and which ones are not. Thus, the ratio of worm-pixels to all pixels inside the region of interest can be calculated to produce the worm-occupancy ratio. This calculation was done for every frame, giving a plot output of worm-occupancy ratio vs. time for each region.

C. elegans [3] = conditions: in vivo; cited from earlier work
Panagrellus redivivus = assay: Ascaroside function (Table 12); assay type: in vivo; conditions: listed = has this function
Procedure: as §1

S. glaseri = assay: Ascaroside function (Table 12); assay type: in vivo; conditions: listed = has this function
Procedure: as §1

C. elegans [4] = assay: Ascaroside function (Table 12); assay type: in vivo, Caenorhabditis elegans; set-up: key to Attract Females/Herm. / Promote Dauer Formation / Attract Males: A very strong result of affecting nematode behavior is designated in the table as “strong.”; conditions: listed = has this function
Procedure: as §1

[5] = system: Meloidogyne javanica, M. floridensis, M. incognita, M. hapla; assay: Ascaroside function (Table 12); assay type: in vivo, Meloidogyne spp.; conditions: for predicted function in Meloidogyne species: alone, in concert, and/or in concert with ascr#9 or other ascarosides; for Dispersal (of dauer larvae, infectious juveniles) / Repel Females/Herm.: entries with asterisk (predicted)
Procedure: (§2) Ascarosides ascr#10, ascr#16, ascr#18, ascr#20, and ascr#22 were detected in certain species of Meloidogyne plant parasitic nematodes (FIG. 83) and identified using high-resolution mass spectrometry (FIGS. 84-88).
as §1

[6] = system: Heterorhabditis bacteriophora, H. zealandica, H. floridensis; assay: Ascaroside function (Table 12); assay type: in vivo, Heterorhabditis spp.; conditions: for predicted function in Heterorhabditis: alone, in concert, and/or in concert with ascr#9 or other ascarosides; for Dispersal (of dauer larvae, infectious juveniles) / Repel Females/Herm.: entries with asterisk (predicted)
Procedure: as §2, §1

C. elegans [7] = assay: Quadrant chemotaxis assay; assay type: in vivo; conditions: FIGS. 48A-B; wild-type hermaphrodites
Procedure: Chemotaxis to both non-indole and indole ascarosides was assessed on 10 cm four-quadrant petri plates (Wicks et al., Dev. Biol. 221:295-307 (2000), which is hereby incorporated by reference in its entirety). Each quadrant was separated from adjacent ones by plastic spacers (FIG. 1B). Pairs of opposite quadrants were filled with nematode growth medium (NGM) agar containing either indole ascarosides or non-indole ascarosides at different concentrations. Animals were washed gently in a S-basal buffer, placed in the center of a four-quadrant plate with ascarosides in alternating quadrants, and scored after 15 minutes and 30 minutes. A chemotaxis index was calculated as: (the number of animals on ascaroside quadrants minus the number of animals on buffer quadrants)/(total number of animals).
Chemotaxis to hbas#3 was assessed on 10 cm four-quadrant petri plates (Wicks et al., Dev. Biol. 221:295-307 (2000), which is hereby incorporated by reference in its entirety). Each quadrant was separated from adjacent ones by plastic spacers. Pairs of opposite quadrants were filled with nematode growth medium (NGM) agar containing different concentrations of hbas#3. Animals were washed gently in an S-basal buffer and placed in the center of a four-quadrant plate with ascarosides in alternating quadrants, and scored after 15 minutes and 30 minutes. A chemotaxis index was calculated as: (the number of animals on ascaroside quadrants minus the number of animals on buffer quadrants)/(total number of animals).

C. elegans [8] = assay: Spot attraction assay; assay type: in vivo
Procedure: The spot attraction assays were conducted according to a previously reported method (Pungaliya et al., PNAS 106:7708-13 (2009); Srinivasan et al., Nature 454:1115-18 (2008), which are hereby incorporated by reference in their entirety). For both C. elegans hermaphrodites and males, 50-60 worms were harvested daily at the fourth larval stage (L4) and stored segregatedly by sex at 20° C. overnight, to be used as young adults the following day. For the competition experiments, two conditions were used: 120 nM ascr#3 and 10 nM icas#3 (Condition 1), or 12 μM ascr#3 and 1 μM icas#3 (Condition 2) in water containing 10% ethanol. Aliquots were stored at −20° C. in 20 μL tubes. 10% ethanol in water was used as control.
Attraction assays with hbas#3 were conducted as previously reported (Srinivasan et al., Nature 454:1115-18 (2008); Pungaliya et al., Proc. Natl. Acad. Sci. U.S.A. 106:7708-13 (2009), which are hereby incorporated by reference in their entirety). For the attraction assays, 50-60 hermaphrodite worms were harvested daily at the early fourth larval stage (L4) and stored at 20° C. overnight to be used as young adults the following day. Hbas#3 was dissolved in water containing 10% ethanol. Aliquots were stored at −20° C. in 20 μL tubes. 10% ethanol in water was used as control.

Compound: CC1O[C@@H](O[C@H](C)CCCC/C=C/C(=O)O)[C@@H](O)C[C@H]1O (some centres unmarked) [ascr#3]
- Dispersal (of dauer larvae, infectious juveniles) (S. feltiae): ascr#3
- amount as low as which elicited C. elegans male attraction (C. elegans males): 5 femtomol
- male attraction from a distance (C. elegans males): chemotax towards
- most active amount for attraction (C. elegans [1]; from 1 μM concentration): ~1 pmol
- response of social and solitary hermaphrodites (C. elegans [1]; high dauer-inducing concentrations): strongly deter both social and solitary hermaphrodites
- response of males and hermaphrodites (C. elegans [1]; in vivo): strongly attracts males but repels hermaphrodites
- preference for ascaroside-conditioned areas [2]: preferred areas conditioned
- dauer-inducing activity (C. elegans [3]): individually promote dauer entry
- Attract Males (Panagrellus redivivus): ascr#3
- Attract Males (S. glaseri): ascr#3
- Attract Males (C. elegans [4]): ascr#3
- Promote Dauer Formation (C. elegans [4]): ascr#3 ([strong])
- Repel Females/Herm. (C. elegans [4]): ascr#3

Compound: CC(=O)CC[C@@H](C)O[C@@H]1O[C@@H](C)[C@H](O)C[C@H]1O[C@@H]1O[C@H](CO)[C@@H](O)[C@H](O)[C@H]1O [ascr#4]
- Promote Dauer Formation (C. elegans [4]): ascr#4

Compound: C[C@H](CC/C=C/C(=O)O)O[C@@H]1O[C@@H](C)[C@H](O)C[C@H]1O [ascr#7]
- preference for ascaroside-conditioned areas [2]: preferred areas conditioned
- Attract Males (Panagrellus redivivus): ascr#7
- Attract Males (S. glaseri): ascr#7
- Attract Males (C. elegans [4]): ascr#7

Compound: CC1OC(O[C@H](C)CCCCCCCC(=O)O)C(O)CC1O (some centres unmarked) [ascr#16]
- predicted function in Meloidogyne species [5]: act as dispersants and repellants
- Dispersal (of dauer larvae, infectious juveniles) [5]: ascr#16*
- Repel Females/Herm. [5]: ascr#16*

Compound: CC1OC(O[C@H](C)CCCCCCCCC(=O)O)C(O)CC1O (some centres unmarked) [ascr#18]
- predicted function in Meloidogyne species [5]: act as dispersants and repellants
- Dispersal (of dauer larvae, infectious juveniles) [5]: ascr#18*
- Repel Females/Herm. [5]: ascr#18*
- predicted function in Heterorhabditis [6]: act as dispersants and repellants
- Dispersal (of dauer larvae, infectious juveniles) [6]: ascr#18*
- Repel Females/Herm. [6]: ascr#18*

Compound: CC1OC(O[C@H](C)CCCCCCCCCC(=O)O)C(O)CC1O (some centres unmarked) [ascr#20]
- predicted function in Meloidogyne species [5]: act as dispersants and repellants
- Dispersal (of dauer larvae, infectious juveniles) [5]: ascr#20*
- Repel Females/Herm. [5]: ascr#20*

Compound: C[C@H](CCCCCCCCCCC(=O)O)O[C@@H]1O[C@@H](C)[C@H](O)C[C@H]1O [ascr#22]
- predicted function in Meloidogyne species [5]: act as dispersants and repellants
- Dispersal (of dauer larvae, infectious juveniles) [5]: ascr#22*
- Repel Females/Herm. [5]: ascr#22*
- predicted function in Heterorhabditis [6]: act as dispersants and repellants
- Dispersal (of dauer larvae, infectious juveniles) [6]: ascr#22*
- Repel Females/Herm. [6]: ascr#22*

Compound: C[C@H](CCCC/C=C/C(=O)O)O[C@@H]1O[C@@H](C)[C@H](OC(=O)c2ccc(O)cc2)C[C@H]1O [hbas#3, (8R)-(3′R-Hydroxy-5′R-(4-hydroxybenzoyloxy)-6′S-methyl-(2H)-tetrahydropyran-2′-yloxy)non-(2E)-enoic acid]
- concentration as low as which strongly attracted C. elegans (C. elegans [7]): 10 femtomolar
- attraction of wild-type (N2) hermaphrodites (C. elegans [8]; dose dependent): attracted
- Attract Males (C. elegans [4]): ([strong])

Compound: C[C@H](CCCCC(=O)O)O[C@@H]1O[C@@H](C)[C@H](OC(=O)c2c[nH]c3ccccc23)C[C@H]1O [icas#1]
- attraction in spot attraction assay (C. elegans [8]; 1 pmol (high concentrations), N2 hermaphrodites and him-5 males): attractive to both C. elegans sexes; also recorded: attracted both males and hermaphrodites
- Attract Females/Herm. (C. elegans [4]): icas#1 ([strong])
- Attract Males (C. elegans [4]): icas#1 ([strong])

Compound: C[C@@H]1O[C@@H](OCCCCC(=O)O)[C@H](O)C[C@H]1O [oscr#9, 5-(3′R,5′R-Dihydroxy-6′S-methyl-(2H)-tetrahydropyran-2′-yloxy)pentanoic acid]
- Attract Males (Panagrellus redivivus): oscr#9

Compound: CC1O[C@@H](OCCCCCCCCC(=O)O)C(O)C[C@H]1O (stereo partly drawn) [oscr#10, 9-(3′R,5′R-Dihydroxy-6′S-methyl-(2H)-tetrahydropyran-2′-yloxy)nonanoic acid]
- Repel Males (Panagrellus redivivus): oscr#10
